Assay results published in patent US20220195481A1, “MITOCHONDRIAL RESPIROMETRY IN FROZEN SPECIMENS” (The Regents of the University of Califormia, priority 2019, published 2022).
Square brackets hold non-standard residues; d marks the D form. Peptide text beside a SMILES is read from it. Phe(ol) = N[C@H](CO)Cc1ccccc1; Aib = CC(C)(N)C(=O)O

How the values were obtained:
SH-SY5Y cells = assay: Respirometry (oxygen consumption rate, Seahorse XF96) in frozen SH-SY5Y cells; format: cell-based, human; conditions: MAS supplemented with 10 μg/mL Alamethicin and 100 μg/mL cytochrome c vs MAS alone; FIG. 8
Experimental: (§1) All procedures are performed at 4° C. All equipment, solutions, and consumables are pre-chilled. • 1. Re-suspend sample in 20 μL MAS buffer. Load 5 technical replicates of each condition. Leave at least 4 empty wells to determine background signal. • 2. To adhere mitochondrial particles to the bottom of the plate, centrifuge the loaded plate at 2,000×g for 5 min at 4° C. using plate carrier rotating buckets. […] After centrifugation, adjust the total volume of the wells to 150 uL by adding 130 uL MAS assay buffer per well. Supplement MAS buffer with 1-200 μg/mL cytochrome c and 1-500 μg/mL Alamethicin if maximal respiration is not reached on MAS alone. To avoid disrupting mitochondrial adherence to the bottom of the plate, add MAS using multichannel pipette pointed at a 45° angle to the top of well chamber, as instructed by the manufacturer. • 4. Incubate the plate at 37° C. in a non-CO2 incubator for 5 minutes. • 5. Insert plate into XF96 and begin assay protocol. Measure oxygen consumption rate (OCR) before and after every injection. Mix, wait, and measure times can vary between 1-7 minutes and 1-5 repetitions.
1. SH-SY5Y cells were cultured according to ATCC instructions. 2. When the cells reached 80% confluency, they were trypsinized, counted, spun down, washed in PBS, and frozen. 3. Cells were thawed on ice and re-suspended in MAS. 4. […]

[1] = test system: frozen murine liver tissue homogenate; assay: Respirometry (oxygen consumption rate, Seahorse XF96) in frozen murine liver homogenate; conditions: MAS supplemented with 100 μg/mL cytochrome c vs MAS alone; NADH and TMPD/Ascorbate injections; FIG. 3
Experimental: as §1
1. Homogenate was prepared from previously frozen murine liver tissue in MAS using glass/Teflon dounce homogenizer. The preparation was centrifuged at 1,000×g for 5 minutes at 4° C. and the supernatant transferred to a new tube. 2. […]

## CC(=O)NC(C)(C)C(=O)N1CCC[C@H]1C(=O)NC(C)(C)C(=O)N[C@@H](C)C(=O)NC(C)(C)C(=O)N[C@@H](C)C(=O)N[C@@H](CCC(N)=O)C(=O)NC(C)(C)C(=O)N[C@H](C(=O)NC(C)(C)C(=O)NCC(=O)N[C@@H](CC(C)C)C(=O)NC(C)(C)C(=O)N1CCC[C@H]1C(=O)N[C@H](C(=O)NC(C)(C)C(=O)NC(C)(C)C(=O)N[C@@H](CCC(=O)O)C(=O)N[C@@H](CCC(N)=O)C(=O)N[C@H](CO)Cc1ccccc1)C(C)C)C(C)C [Alamethicin] (Ac-[Aib]P[Aib]A[Aib]AQ[Aib]V[Aib]GL[Aib]PV[Aib][Aib]EQ[Phe(ol)])
SH-SY5Y cells
  respiration in frozen cultured human bone marrow neuroblastoma cell line: Enhances Respiration

## cytochrome c
[1]
  respiration in frozen tissue homogenates: enhances respiration
